One block for each compound: values may come before it.
Target: T1, Bcl-2 protein (Recombinant Human Bcl-2 Protein) (Homo sapiens, UniProt P10415)
T1 construct: purchased Novus NBP2-34889
Test: Binding evaluation of mixture library compounds to Bcl-2 using AS-MS (affinity selection mass spectrometry)
Details: for ASMS ratio (%) n = 1: replicate n = 1; for ASMS ratio (%) n = 1 / ASMS ratio (%) n = 2: ASMS Ratio(%)=(A−C)/B×100; for ASMS ratio (%) n = 2: replicate n = 2
Procedure, shortened: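 Readout is ASMS Ratio (%), (A−C)/B×100, from reversed-phase LC/MS of SEC-passed extracts, with protein-free unfiltered standard (B) and protein-free SEC blank (C). Recombinant human Bcl-2 at 20 μM final met ~1200 pooled compounds at […] each for 1 h, 23° C., dark, in Tris-HCl pH 7.4 buffer.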

[1] = AS-MS on the mixture of 1200 library compounds
[2] = AS-MS, mixture of 1200 compounds, Bcl-2

T1 sequence (P10415 whole entry): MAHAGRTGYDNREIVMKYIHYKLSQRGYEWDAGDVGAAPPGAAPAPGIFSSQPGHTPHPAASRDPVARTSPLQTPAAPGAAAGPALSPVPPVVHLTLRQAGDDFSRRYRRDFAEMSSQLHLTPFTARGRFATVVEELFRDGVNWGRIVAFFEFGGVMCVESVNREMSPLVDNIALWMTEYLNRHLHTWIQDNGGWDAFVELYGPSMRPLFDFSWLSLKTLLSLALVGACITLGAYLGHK

Compound: CCOc1cncc(-c2ccc(CN3CCN(c4ccc(C(=O)NS(=O)(=O)c5ccc(NCCSc6ccccc6)c([N+](=O)[O-])c5)nn4)CC3)cc2F)c1 [B2Q078-01]
ASMS ratio (%) n = 1 (AS-MS, mixture library, Bcl-2): 15.6% | ASMS ratio (%) n = 2 (AS-MS, mixture library, Bcl-2): 12.1%

Compound: CCOc1cncc(-c2ccc(C(C)N3CCN(c4ccc(C(=O)N(C)CC56CC7CC(CC(C7)C5)C6)cc4)CC3)cc2)c1 (centres unmarked) [B3A098-01, N-(1-Adamantylmethyl)-4-[4-[1-[4-(5-ethoxypyridin-3-yl)phenyl]ethyl]piperazin-1-yl]-N-methylbenzamide]
ASMS ratio (%) n = 1 [1]: 0.6% | ASMS ratio (%) n = 2 [1]: 3.0%

Compound: 4-[4-[[3-(3-Ethoxyphenyl)-5-(trifluoromethyl)phenyl]methyl]piperazin-1-yl]-N-propylbenzamide [B1M026-01]
ASMS ratio (%) n = 1 [2]: 0.9% | ASMS ratio (%) n = 2 [2]: 0.9%

Compound: CCOc1cccc(-c2cc(OC)c(CN3CCN(c4ccc(C(=O)N(C)CC56CC7CC(CC(C7)C5)C6)cc4)CC3)c(OC)c2)c1 [B3A059-01, N-(1-Adamantylmethyl)-4-[4-[[4-(3-ethoxyphenyl)-2,6-dimethoxyphenyl]methyl]piperazin-1-yl]-N-methylbenzamide]
ASMS ratio (%) n = 1 [1]: −1.9% | ASMS ratio (%) n = 2 [1]: −8.0%

Compound: CCOc1cncc(-c2ccc(C(=O)N3CCN(c4ccc(C(=O)N(C)CC56CC7CC(CC(C7)C5)C6)nn4)CC3)cc2C)c1 [B3A004-01, N-(1-Adamantylmethyl)-6-[4-[4-(5-ethoxypyridin-3-yl)-3-methylbenzoyl]piperazin-1-yl]-N-methylpyridazine-3-carboxamide]
ASMS ratio (%) n = 1 [1]: 3.5% | ASMS ratio (%) n = 2 [1]: −0.5%

Compound: 6-[4-[[3-(5-Ethoxypyridin-3-yl)-5-(trifluoromethoxy)phenyl]methyl]piperazin-1-yl]-N-propylpyridazine-3-carboxamide [B1M035-01]
ASMS ratio (%) n = 1 [2]: 2.9% | ASMS ratio (%) n = 2 [2]: −1.7%

Compound: CCOc1cccc(-c2ccc(C(=O)N3CCN(c4ccc(C(=O)Nc5ccc(OC)cc5)nn4)CC3)cc2C)c1 [B1O003-01, 6-[4-[4-(3-Ethoxyphenyl)-3-methylbenzoyl]piperazin-1-yl]-N-(4-methoxyphenyl)pyridazine-3-carboxamide]
ASMS ratio (%) n = 1 [1]: 0.0% | ASMS ratio (%) n = 2 [1]: 0.0%

Compound: CCOc1cncc(-c2cc(CN3CCN(c4ccc(C(=O)NCC56CC7CC(CC(C7)C5)C6)cc4)CC3)cc(OC(F)(F)F)c2)c1 [B1A064-01, N-(1-Adamantylmethyl)-4-[4-[[3-(5-ethoxypyridin-3-yl)-5-(trifluoromethoxy)phenyl]methyl]piperazin-1-yl]benzamide]
ASMS ratio (%) n = 1 [2]: 5.2% | ASMS ratio (%) n = 2 [2]: −1.6%

Compound: CCOc1cccc(-c2ccc(CN3CCN(c4ccc(C(=O)NS(=O)(=O)C(C)(C)C)cc4)CC3)cc2C)c1 [B2L047-01, N-tert-Butylsulfonyl-4-[4-[[4-(3-ethoxyphenyl)-3-methylphenyl]methyl]piperazin-1-yl]benzamide]
ASMS ratio (%) (n = 1): 0.0% | ASMS ratio (%) (n = 2): 0.0%

Compound: CCOc1cccc(-c2ccc(CN3CCN(c4ccc(C(=O)NCC(F)(F)F)cc4)CC3)cc2C)c1 [B1K047-01]
ASMS ratio (%) n = 1 [2]: 3.3% | ASMS ratio (%) n = 2 [2]: 0.5%

Compound: CCOc1cncc(-c2ccc(CN3CCN(c4ccc(C(=O)NS(=O)(=O)CCC(F)(F)F)cc4)CC3)c(CC)c2)c1 [B2N050-01, 4-[4-[[4-(5-Ethoxypyridin-3-yl)-2-ethylphenyl]methyl]piperazin-1-yl]-N-(3,3,3-trifluoropropylsulfonyl)benzamide]
ASMS ratio (%) (n = 1): 0.0%

Compound: CCOc1cccc(-c2cc(CN3CCN(c4ccc(C(=O)NCC56CC7CC(CC(C7)C5)C6)nn4)CC3)cc(OC(F)(F)F)c2)c1 [B1A089-01, N-(1-Adamantylmethyl)-6-[4-[[3-(3-ethoxyphenyl)-5-(trifluoromethoxy)phenyl]methyl]piperazin-1-yl]pyridazine-3-carboxamide]
ASMS ratio (%) n = 1 [2]: 0.0%

Compound: CCOc1cncc(-c2ccc(CN3CCN(c4ccc(C(=O)NCC(F)(F)F)cc4)CC3)c(CC)c2)c1 [B1K050-01]
ASMS ratio (%) n = 1 [2]: 0.0% | ASMS ratio (%) n = 2 [2]: 0.0%

Compound: 6-[4-[4-(3-Ethoxyphenyl)-3-fluorobenzoyl]piperazin-1-yl]-N-propylpyridazine-3-carboxamide [B1M087-01]
ASMS ratio (%) n = 1 [1]: 3.8% | ASMS ratio (%) n = 2 [1]: 3.2%

Compound: CCOc1cccc(-c2cc(CN3CCN(c4ccc(C(=O)NCC(F)(F)F)cc4)CC3)cc(C(F)(F)F)c2)c1 [B1K061-01, 4-[4-[[3-(3-Ethoxyphenyl)-5-(trifluoromethyl)phenyl]methyl]piperazin-1-yl]-N-(2,2,2-trifluoroethyl)benzamide]
ASMS ratio (%) n = 1 [2]: 2.8% | ASMS ratio (%) n = 2 [2]: −1.3%

Compound: CCOc1cccc(-c2ccc(CN3CCN(c4ccc(C(=O)NCC56CC7CC(CC(C7)C5)C6)cc4)CC3)c(CC)c2)c1 [B1A049-01, N-(1-Adamantylmethyl)-4-[4-[[4-(3-ethoxyphenyl)-2-ethylphenyl]methyl]piperazin-1-yl]benzamide]
ASMS ratio (%) n = 1 [2]: 4.1% | ASMS ratio (%) n = 2 [2]: −9.1%

Next, values leading:

ASMS ratio (%) n = 1 (AS-MS, mixture library, Bcl-2): 4.6% | ASMS ratio (%) n = 2 (AS-MS, mixture library, Bcl-2): 4.4%
Compound: CCOc1cccc(-c2ccc(CN3CCN(c4ccc(C(=O)NS(=O)(=O)CC56CC7CC(CC(C7)C5)C6)nn4)CC3)c(CC)c2)c1 [B2A075-01, N-(1-Adamantylmethylsulfonyl)-6-[4-[[4-(3-ethoxyphenyl)-2-ethylphenyl]methyl]piperazin-1-yl]pyridazine-3-carboxamide]

ASMS ratio (%) (n = 1): 0.0% | ASMS ratio (%) (n = 2): 0.0%
Compound: CCOc1cncc(-c2cnn(-c3cc(C(=O)N4CCN(c5ccc(C(=O)NS(=O)(=O)CCC(F)(F)F)nn5)CC4)cc(C(F)(F)F)c3)c2)c1 [B2N022-01, 6-[4-[3-[4-(5-Ethoxypyridin-3-yl)pyrazol-1-yl]-5-(trifluoromethyl)benzoyl]piperazin-1-yl]-N-(3,3,3-trifluoropropylsulfonyl)pyridazine-3-carboxamide]

ASMS ratio (%) n = 1 (AS-MS, mixture library, Bcl-2): 0.0% | ASMS ratio (%) n = 2 (AS-MS, mixture library, Bcl-2): 0.0%
Compound: CCOc1cncc(-c2csc(C(=O)N3CCN(c4ccc(C(=O)NS(C)(=O)=O)cc4)CC3)c2)c1 [B2I024-01, 4-[4-[4-(5-Ethoxypyridin-3-yl)thiophene-2-carbonyl]piperazin-1-yl]-N-methylsulfonylbenzamide]

ASMS ratio (%) (n = 1): 0.0% | ASMS ratio (%) (n = 2): 0.0%
Compound: CCOc1cccc(-c2cc(OC)c(CN3CCN(c4ccc(C(=O)NS(C)(=O)=O)cc4)CC3)c(OC)c2)c1 [B2I059-01]

ASMS ratio (%) n = 1 (AS-MS, mixture library, Bcl-2): −0.5% | ASMS ratio (%) n = 2 (AS-MS, mixture library, Bcl-2): 0.9%
Compound: CCOc1cncc(-c2ccc(CN3CCN(c4ccc(C(=O)N(CC)CC)nn4)CC3)cc2F)c1 [B4J078-01, 6-[4-[[4-(5-Ethoxypyridin-3-yl)-3-fluorophenyl]methyl]piperazin-1-yl]-N,N-diethylpyridazine-3-carboxamide]

ASMS ratio (%) n = 1 [2]: 0.0% | ASMS ratio (%) n = 2 [2]: 0.0%
Compound: CCOc1cncc(-c2cc(C(=O)N3CCN(c4ccc(C(=O)NCC(F)(F)F)nn4)CC3)cc(C(C)(C)C)c2)c1 [B1K016-01, 6-[4-[3-tert-Butyl-5-(5-ethoxypyridin-3-yl)benzoyl]piperazin-1-yl]-N-(2,2,2-trifluoroethyl)pyridazine-3-carboxamide]

ASMS ratio (%) (n = 1): 5.7% | ASMS ratio (%) (n = 2): −5.1%
Compound: CCOc1cccc(-c2cc(CN3CCN(c4ccc(C(=O)NS(=O)(=O)c5ccc(NCCSc6ccccc6)c(C(F)(F)F)c5)cc4)CC3)cc(OC(C)C)c2)c1 [B2R057-01, 4-[4-[[3-(3-Ethoxyphenyl)-5-propan-2-yloxyphenyl]methyl]piperazin-1-yl]-N-[4-(2-phenylsulfanylethylamino)-3-(trifluoromethyl)phenyl]sulfonylbenzamide]

ASMS ratio (%) (n = 2): 0.0%
Compound: CCOc1cncc(-c2cc(OC)c(CN3CCN(c4ccc(C(=O)NS(=O)(=O)C(C)(C)C)cc4)CC3)c(OC)c2)c1 [B2L060-01, N-tert-Butylsulfonyl-4-[4-[[4-(5-ethoxypyridin-3-yl)-2,6-dimethoxyphenyl]methyl]piperazin-1-yl]benzamide]

ASMS ratio (%) (n = 1): 7.5% | ASMS ratio (%) (n = 2): −5.5%
Compound: CCOc1cccc(-c2ccc(CN3CCN(c4ccc(C(=O)NS(=O)(=O)c5ccc(NCCSc6ccccc6)c(C(F)(F)F)c5)cc4)CC3)c(CC)c2)c1 [B2R049-01, 4-[4-[[4-(3-Ethoxyphenyl)-2-ethylphenyl]methyl]piperazin-1-yl]-N-[4-(2-phenylsulfanylethylamino)-3-(trifluoromethyl)phenyl]sulfonylbenzamide]

ASMS ratio (%) (n = 1): 0.0% | ASMS ratio (%) (n = 2): 0.0%
Compound: CCOc1cccc(-c2cc(C(=O)N3CCN(c4ccc(C(=O)NS(=O)(=O)C(C)(C)C)nn4)CC3)cc(C(C)(C)C)c2)c1 [B2L015-01, 6-[4-[3-tert-Butyl-5-(3-ethoxyphenyl)benzoyl]piperazin-1-yl]-N-tert-butylsulfonylpyridazine-3-carboxamide]

ASMS ratio (%) n = 1 (AS-MS, mixture library, Bcl-2): −1.4% | ASMS ratio (%) n = 2 (AS-MS, mixture library, Bcl-2): 0.3%
Compound: CCOc1cncc(-c2ccc(CN3CCN(c4ccc(C(=O)N(CC)CC)nn4)CC3)c3ccccc23)c1 [B4J092-01, 6-[4-[[4-(5-Ethoxypyridin-3-yl)naphthalen-1-yl]methyl]piperazin-1-yl]-N,N-diethylpyridazine-3-carboxamide]

ASMS ratio (%) (n = 1): 3.2% | ASMS ratio (%) (n = 2): −0.8%
Compound: CCOc1cncc(-c2ccc(C(=O)N3CCN(c4ccc(C(=O)NS(=O)(=O)c5ccc(NCCSc6ccccc6)c(C(F)(F)F)c5)cc4)CC3)c3ccccc23)c1 [B2R036-01, 4-[4-[4-(5-Ethoxypyridin-3-yl)naphthalene-1-carbonyl]piperazin-1-yl]-N-[4-(2-phenylsulfanylethylamino)-3-(trifluoromethyl)phenyl]sulfonylbenzamide]
